In patent US20210284691A1, “CBX8 CHROMDOMAIN INHIBITORS AND THE USES THEREOF” (Purdue Research Foundation, priority 2019, published 2021):
Square brackets hold non-standard residues; d marks the D form. Primed or numbered codes have the meaning given here. Ends that are not written are not given here. Peptide text beside a SMILES is read from it. * marks the point of attachment. Isoxazole3carbonyl(5-Me) = Cc1cc(C(=O)*)no1; Tyr(3-Cl) = N[C@@H](Cc1ccc(O)c(Cl)c1)C(=O)O; Lys(Et2) = CCN(CC)CCCC[C@H](N)C(=O)O; PEG4′ = not defined here; NH(propargyl) = C#CCN*

Key:
CBX8 regulated gene = assay: Gene expression of a CBX8 regulated gene in HEK293T cells; format: cell-based, Human; conditions: high compound concentrations
CBX8 ChD = molecular target: T1, CBX8 ChD (Homo sapiens, UniProt Q9HC52); assay: Direct fluorescence polarization (FP) binding assay; conditions: from Kd values
T1 construct: CBX chromodomain constructs; host or cells: E. coli BL21 CodonPlus RIL
T1 sequence (Q9HC52 11-69 limits assumed): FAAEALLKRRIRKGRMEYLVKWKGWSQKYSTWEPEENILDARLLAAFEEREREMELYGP
Protocol: Bacterial growth was completed at 37° C. in LB media to OD600=2.0, followed by reducing the temperature to 16° C. over 30-60 min and induced with 1 mM IPTG for 16 h. Cells were collected by centrifugation at 6000 rpm for 20 min and resuspended in ChD binding buffer (20 mM Tris, pH 8, 150 mM NaCl, 0.01% Tween-20, 20 mM imidazole) with 1.0 mM PMSF. Bacteria pellets were stored at −80° C. until needed. Pellets were thawed on ice for 10 min in ChD binding buffer, and shaked at 4° C. supplemented with 100 μg/mL lysozyme, 1 mg/mL CHAPS and 1 mM PMSF, for 30 min. Cells were subsequently lysed by sonication (15 W, 30 s on, followed by 30 s off, twice, followed by 20 W for 1 min). The solubilized fraction was collected by centrifugation at 15000 rpm for 40 min at 4° C. Meanwhile, Ni-NTA Agarose resin (QIAGEN, Venlo, Netherlands) was washed with H2O and equilibrated with ChD binding buffer. The soluble fraction was incubated with the prewashed Ni-NTA agarose resin at 4° C. for 2 h. The resin was then washed 3× with ChD purification buffer (20 mM Tris, pH 8, 150 mM NaCl, 0.01% Tween-20, 1 mM PMSF). Proteins were eluted by the addition of 0.5 M imidazole to ChD purification buffer. The elution was diluted with 30% glycerol, flash frozen, and stored at −80° C. until needed. Protein purity was assessed by SDS-PAGE and concentration was determined by the Pierce 660 kit (Thermo Scientific).
Direct fluorescence polarization (FP) binding assay of PSL hits against PcG CBX ChDs. FP assays were conducted as above with slight modifications. Alkyne peptides described above were conjugated with a fluorescein group(5-/6-FAM) through copper catalyzed click reaction as previously described. The FAM-labeled peptide was kept constant at 100 nM. The CBX ChD proteins were titrated by 2-fold series dilutions in the assays. The highest protein concentrations, at which FAM-peptide was completely bound, used for each CBX in the direct binding assays depends on the binding affinity of the peptides. Assays were performed for each peptide in four replicates.

THP1 cells = conditions: 50 μM
Protocol: Cells were grown for 72 h before trypsinized and counted. Cell suspension was homogenized by gentle pipetting and counted using Countess II (#AMQAF1000, Life Technologies). […] At day 6, 25 percent of cells in each well were split and transferred to new wells to avoid over-confluency, and media was replaced with fresh compounds in new media. The cell viability assay was extended to 12 days, with cell counting and fresh compound replenishment at day 3, 6, 9.
Luminescence was normalized to DMSO-treated groups. The IC50 was calculated using the “log[inhibitor] vs. the normalized response-variable slope” equation in GraphPad Prism 7.

[1] = molecular target: T2, CBX8 binding to chromatin (Homo sapiens, UniProt Q9HC52); assay: ChIP-qPCR in Hs68 fibroblast cells; format: cell-based; conditions: 120 μM
T2 construct: endogenous in cells; host or cells: Hs68 fibroblasts (A16); HEK293T (A19); K562 (A23)
T2 sequence (Q9HC52 1-389): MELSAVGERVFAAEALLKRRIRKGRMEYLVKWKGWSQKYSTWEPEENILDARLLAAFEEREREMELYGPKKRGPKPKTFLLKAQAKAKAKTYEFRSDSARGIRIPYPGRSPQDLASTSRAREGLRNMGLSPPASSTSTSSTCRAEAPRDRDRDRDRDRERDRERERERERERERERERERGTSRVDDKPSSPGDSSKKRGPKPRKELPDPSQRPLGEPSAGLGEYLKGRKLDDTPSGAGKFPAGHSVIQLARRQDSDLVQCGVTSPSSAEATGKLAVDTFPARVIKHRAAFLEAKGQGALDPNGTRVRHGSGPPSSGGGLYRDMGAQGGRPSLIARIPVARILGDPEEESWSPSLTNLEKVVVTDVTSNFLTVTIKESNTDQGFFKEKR
Protocol: ChIP: Hs68 cells were seeded at 4×10^6 in a 10 cm cell culture plates 16 hours prior to treatment. […] ChIP was performed as described in Connelly et al., 2018. Birefly, cells were washed with PBS and fixed on the plate with CiA Fix buffer (50 mM HEPES, pH 8.0, 1 mM EDTA, 0.5 mM ETGA, 100 mM NaCl) and 1% formaldehyde for 10 min at room temperature. Crosslinking was quenched with 0.125 M glycine for 5 min at 4° C. Cells were washed once with PBS and lifted off the plate then resuspended in CiA NP Rinse buffer 1 (50 mM HEPES pH 8.0, 140 mM NaCl, 1 mM EDTA, 10% glycerol, 0.5% NP-40, 0.25% Triton X) for 10 min. Cells were pelleted at 1200×g for 5 min at 4° C. The supernatant was removed, and the cells were resuspended in CiA NP rinse buffer 2 (10 mM Tris pH 8.0, 1 mM EDTA, 0.5 mM EGTA, 200 mM NaCl). Cells were collected by centrifugation, 1200×g for 5 min. Supernatant was removed and the cells were washed twice with shearing buffer (0.1% SDS, 1 mM EDTA, 10 mM Tris HCl, pH 8.0). Cells were resuspended in shearing buffer and sonicated for 7 min with the probe (Branson). Lysate was centrifuged at 21,000×g for 15 min to remove debris. Supernatant was collected and pre-cleared overnight with Protein A/G magnetic beads (Pierce). […]
qPCR: qPCR was performed on the isolated ChIP DNA using SYBR master mix (Thermo) and run on the BioRad CFX thermo cycler. […] Enrichment was determined by percent input. […]

LNCaP cells = assay: LNCaP cell proliferation; format: cell-based; conditions: ENZA treatment
Excerpt: To generate an in vitro model for NED, we cultured the androgen-sensitive prostate cancer cell line LNCaP in charcoal-stripped serum (CSS), which lacks androgens as well as other steroids. […] To verify that LNCaP_NED cells become resistant to AR antagonists, we tested the effects of the AR antagonist enzalutamide (ENZA) on cell proliferation.

LNCaP_NED cells = assay: LNCaP_NED cell proliferation, viability and morphology; format: cell-based; conditions: enzalutamide treatment
Excerpt: FIG. 12A). Neuroendocrine differentiation (NED) of prostate cancer induced by androgen deprivation. Representative pictures of LNCaP cells treated with normal media or charcoal-stripped serum (CSS) media for 6 days to induce neuroendocrine differentiation (LNCaP_NED). FIG. 12B). Transcriptional fold changes of KLK3/TMPRSS2/ENO2/CHGA were quantified normalized to control gene YWHAZ upon CSS media treatment for 6 or 9 days. FIG. 12C). Western blotting of CBX paralogs in LNCaP and LNCaP_NED cells generated from 14-day CSS treatment. FIG. 12D). Cell proliferation of LNCaP_NED following 5 days incubation with 2 or 10 μM SW2_152F. DMSO was used as negative control. FIG. 12E). LNCaP_NED cells were treated with 10 μM SW2_152F for 24 h-96 h. Cell morphology pictures were captured starting from 24 h. Average cell size were plotted at 24 h or 48 h for both DMSO group and compound treated group. FIG. 12F). LNCaP_NED cells were treated with 10 μM or 50 μM SW2_152F for 48 hours. Transcriptional fold change of genes (KLK3/TMPRSS2/AR/CBX2) were normalized to YWHAZ in LNCaP_NED cells with SW2_152F treatment or DMSO. FIG. 12G). LNCaP cells were treated with DMSO. LNCaP_NED cells were treated with DMSO, 10 μM GSK343 or 10 μM SW2_152F for 48 hours. Whole cell lysates were extracted for western blotting. FIG. 12H). LNCaP_NED cells were treated with DMSO or 10 μM SW2_152F for 4 hours before harvest. Binding of H3K27me3 and CBX2 at specific genomic sites (KLK3/TMPRSS2, e: enhancer, p: promoter) were evaluated using chromatin immunoprecipitation-qPCR. For all experiments in the figure, error bars represent SEM n=3 biological replicates, p-values were calculated using two-tailed Student's t-test, *=p<0.05, **=p<0.01, ***=p<0.001, ****=p<0.0001.
Cellular Activity of CBX2 Inhibitor in Neuroendocrine Differentiation of Prostate Cancer—Generation of a Prostate Cancer Neuroendocrine Differentiation (NED) System. To generate an in vitro model for NED, we cultured the androgen-sensitive prostate cancer cell line LNCaP in charcoal-stripped serum (CSS), which lacks androgens as well as other steroids. Upon treatment with CSS media, LNCaP cells adopted morphological characteristics of neuroendocrine-like cells (LNCaP_NED), which include dominant nucleus, limited cytoplasm, dendrites (FIG. 12A) and a decreased proliferation rate. To monitor transcriptional changes during androgen deprivation, we quantified the changes in expression of two NED markers (ENO2 and CHGA) and two AR target genes (KLK3 and TMPRSS2) by RT-qPCR during 15 days of androgen deprivation. […] To verify that LNCaP_NED cells become resistant to AR antagonists, we tested the effects of the AR antagonist enzalutamide (ENZA) on cell proliferation.

endogenous CBX proteins = assay: Peptide pull-down / chemoprecipitation from HEK293T lysates; format: binding, Human
Protocol: 2×10^7 HEK293T cells were seeded in a 15 cm cell culture dish overnight. Next day, media was removed and cells were washed with PBS. Cells were lysed with 5 ml Buffer A (25 mM HEPES, 5 mM KCl, 25 mM MgCl2, 0.05 mM EDTA, 10% glycerol, 0.1% NP-40, plus protease inhibitors) on ice for 15 minutes. The nuclei were pelleted and re-suspended in IP buffer (25 mM Tris, 300 mM NaCl, 1 mM EDTA, 1% NP-40, plus protease inhibitors) for 15 minutes. The sample were spun down at 15,000 rpm at 4° C. for 5 min and lysates were transferred to separate tubes. Protein concentrations were determined by Pierce 660 nm kit (Thermo Scientific). Streptavidin M-270 Dynabeads (Solulink, San Diego, Calif.) was washed three times with Pulldown Binding Buffer (50 mM Tris, 150 mM NaCl, 0.5 mM DTT). 10× of biotinylated peptides SW2_110A-B, as well as biotinylated H3K27me3 (21-44) and biotinylated H3 (21-44), were incubated with […] pre-equilibriumed beads at 4° C. for an hour. After biotin-peptide being immobilized on resin, extra unbound peptides were removed by 3× washing, and 200 μg of nuclear lysate supernatant was added to each washed and immobilized biotinylated peptide (biotin-H3, biotin-H3K27me3, SW2_110A-B). The mixture was rotated at 4° C. for 2 hours. Then, the depleted lysate was removed and the beads were washed with Pulldown Binding Buffer 3× at 4° C. […] ImageJ was employed to quantitate the protein bands.

In the case of `C#CCNC(=O)[C@H](CO)NC(=O)[C@H](CCCCN(CC)CC)NC(=O)[C@@H](NC(=O)[C@@H](NC(=O)[C@H](Cc1ccc(O)c(Cl)c1)NC(=O)c1cc(C)on1)C(C)C)[C@@H](C)CC` [KED97L] ({Isoxazole3carbonyl(5-Me)}-[Tyr(3-Cl)]VI[Lys(Et2)]S-{NH(propargyl)}; C-terminus assumed), the “gene expression changes of a CBX8 regulated gene” value (CBX8 regulated gene) is reported as “only slightly affected”, the “selectivity for CBX8 ChD over CBX7 ChD” value (CBX8 ChD) is reported as 20 fold and the THP1 cell viability (THP1 cells) is reported as “only slightly affected”. The “CBX8 binding at a known target, ChIP-qPCR” value [1] was “completely unaffected”.
For `CNC(=O)c1ccc(N2C(=S)N(c3ccc(C#N)c(C(F)(F)F)c3)C(=O)C2(C)C)cc1F` [enzalutamide, reference compound], the “LNCaP proliferation with AR antagonist” value (LNCaP cells) was “highly decreased proliferation” and the “LNCaP_NED proliferation with AR antagonist” value (LNCaP_NED cells) was “no further decrease in proliferation”.
“SW2_152F-B: biotinylated SW2_152F (SEQ ID NO: 29) (PIKS-{PEG4′-biotin}; also: Pro1 alpha-amino modified, Lys3 side chain amino modified)” was tested, and the “enrichment of endogenous CBX proteins by biotinylated ligand, immunoblot” value (endogenous CBX proteins) was “robustly enriched CBX2 and CBX8 with limited enrichment of other paralogs”.
